Holding throughout (assay type): in vivo, mouse
The subject of experiment [1] is POMC null mutants and wildtype littermates. Description: Corticosterone supplementation in drinking water, blood glucose levels. To be noted: 25 μg per mL in drinking water for 3½ months, starting at 3 months of age; POMC null mutants and wildtype females. The method, then:
(§1) In the experiment illustrated in FIG. 7, POMC null mutants and wildtype littermate females, 5 per group, received drinking water containing corticosterone (25 μg per mL) or nothing in addition for 3½ months, starting at 3 months of age. Blood glucose levels were determined before and after corticosterone supplementation.

Experiment [2] has as its system POMC null mutants and wildtype mice. Description: Insulin tolerance test after corticosterone supplementation. On the procedure: In this experiment, illustrated in FIG. 6, food was taken away in the morning from 5 month old females, 5 per group. 6 hrs later, the mice were injected with insulin (Human insulin, 1 Unit/kg, i.p.). Blood was collected at times indicated and glucose measured using a Glucometer.
as §1

The subject of experiment [3] is POMC mutants and wildtype mice. The experiment can be described thus: Insulin tolerance test after MSH or ACTH treatment. The conditions noted are these: for glucoregulatory response / ability of POMC null mice: peripheral administration to POMC null mice. On the procedure:
In this experiment, illustrated in FIG. 9, glucose was measured in 4-6 month old female mice, wildtypes and POMC mutants, 5 mice per group. Mice were fasted for 5 hours. Each genotype (wildtype +/+and mutant −/−) received either: (1) 0.1 mL saline i.p.; (2) 0.1 mL saline containing 1 μg α-MSH i.p.; or (3) 0.1 mL saline containing 1 μg ACTH s.c.
One hour later, human insulin (0.5 mIU/g body weight) was injected intraperitoneally in all mice, and glucose was measured at the indicated intervals in blood collected from a tail nick.

As for `C[C@]12C[C@H](O)[C@H]3[C@@H](CCC4=CC(=O)CC[C@@]43C)[C@@H]1CC[C@@H]2C(=O)CO` [corticosterone], the “induction of diabetes (blood glucose levels before and after supplementation)” value in experiment [1] was “does not induce diabetes”. The “counterregulatory response in insulin tolerance test” value in experiment [2] (POMC mutants versus wildtype mice) is on record as “lag behind the wildtype mice in their counterregulatory response in the same manner as without corticosterone supplementation”. In addition, the “blood glucose levels in insulin tolerance test” value in experiment [2] (both wildtypes and mutants, versus untreated group) is “do not fall to as low a level as in the untreated group”.
Turning to “Ac-Ser-Tyr-Ser-Met-Glu-His-Phe-Arg-Trp-Gly-Lys-Pro-Val-NH2 [α-MSH]”, the “blood glucose levels in insulin tolerance test, treated POMC mutants versus wildtype littermates” value in experiment [3] (1 μg α-MSH i.p. one hour before human insulin 0.5 mIU/g i.p., 4-6 month old females fasted 5 hours) was “not significantly different”. Also, the “insulin resistance in the POMC null mouse” value in experiment [3] (administration to the POMC null mouse) is on record as “induces insulin-resistance”. Also, the figures for the “glucoregulatory response / ability of POMC null mice” value in experiment [3] and in experiment [3] (listed as melanocortin stimulating hormone (MSH)) were “restored the glucoregulatory ability” and “nearly normalizes the glucoregulatory response”, respectively.
